Experiments:
Details in all cases: 48 h
[1] = test system: CU-ACC1; experiment: AC50 viability; higher = less potent
In short: (§1)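 Three adrenocortical carcinoma cell lines in 1,536-well plates received 23 nL of each library compound at 11 concentrations and were read with CellTiter-Glo after 48 h, with 15 minutes at room temperature before measuring luminescence. Vehicle and empty-well controls served for per-plate normalisation. AC50 and area under the curve were extracted from fitted concentration-response curves, discarding all curve classes other than inhibitory or non-responding.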

[2] = test system: CU-ACC2; experiment: AC50 viability; higher = less potent
In short: as §1

[3] = test system: NCI-H295R; experiment: AC50 viability; higher = less potent
In short: as §1

[4] = test system: CU-ACC1; experiment: area under concentration-response curve (viability) (AUC (a.u.)); higher = less active
In short: as §1

[5] = test system: CU-ACC2; experiment: as above
In short: as §1

[6] = test system: NCI-H295R; experiment: as above
In short: as §1

Structure (SMILES)	AC50 viability [1] [µM]	AC50 viability [2] [µM]	AC50 viability [3] [µM]	area under concentration-response curve [4]	area under concentration-response curve [5]	area under concentration-response curve [6]
c1ccc(CNc2nc(NCc3ccccc3)c3ccccc3n2)cc1	7.42	9.34	7.42	366	467	386
C[C@@]12C(=O)OC(=O)[C@]1(C)[C@H]1CC[C@@H]2O1	7.42	10.5	4.68	442	431	434
CN(C)CCN(C)C(=O)c1ccc(NC(=O)Nc2ccc(-c3nc(N4CCOCC4)c4ccn(CC(F)(F)F)c4n3)cc2)cc1	4.68	3.72	5.9	307	307	354
COc1ccc2c(c[n+](C)c3c4cc5c(cc4ccc23)OCO5)c1OC	20.9	33.2	20.9	445	465	402
C=CC(=O)Nc1cccc(Nc2nc(Nc3ccc(N4CCN(C(C)=O)CC4)cc3OC)ncc2C(F)(F)F)c1	4.68	3.72	5.25	335	394	362
Cc1ccc([S+](=O)([O-])Nc2cc(Cl)ccc2C(=O)Nc2nc(-c3ccccc3)cs2)cc1	9.34	0.263	2.63	362	306	340
CC(C)[C@@H](N(CCCN)C(=O)C1=CC=C(C)C=C1)C/2=N/C3=CC(=CC=C3C(=O)N2CC4=CC=CC=C4)Cl	20.9	26.3	5.9	440	567	410
N/C(=N\C(=O)c1nc(Cl)c(N)nc1N)NCc1ccccc1	10.5	8.33	11.8	322	370	396
C[C@@]12O[C@@H](C[C@]1(O)CO)n1c3ccccc3c3c4c(c5c6ccccc6n2c5c31)CNC4=O	6.61	9.34	14.8	380	346	407
CNc1nc(-c2ccc3c(N)n[nH]c3c2)cc(N2C[C@@H](C(=O)NC3CCCCC3)CC[C@H]2C)n1	20.9	20.9	18.6	458	544	506
CN1CCN(c2cc(C(=O)Nc3ccc4c(c3)-c3c(c(C(N)=O)nn3-c3ccc(F)cc3)CC4)c(Cl)cn2)CC1	9.34	20.9	10.5	427	521	480
NC(CO)(CO)CCc1ccc(Sc2cccc(OCc3ccccc3)c2)cc1Cl	14.8	18.6	10.5	423	491	449
C[C@@H]1CN[C@H]2[C@@H](C)[C@@]3(CC[C@H]4[C@@H]5CC[C@@H]6C[C@@H](CC[C@]6(C)[C@H]5C\C4=C(C)\C3)N[S+](C)([O-])=O)O[C@@H]2C1	16.6	20.9	14.8	467	539	504
C[C@H](NC(=O)C(=O)Nc1ccccc1C(C)(C)C)C(=O)N[C@@H](CC(=O)O)C(=O)COc1c(F)c(F)cc(F)c1F	1.66	0.661	1.05	328	235	203
CN(C)C/C=C/C(=O)Nc1ccc(C(=O)N2CCC[C@@H](Nc3ncc(Cl)c(-c4c[nH]c5ccccc45)n3)C2)cc1	5.25	2.63	14.8	399	358	489
C=C1CCC2[C@](C)(CO)C(O)CC[C@]2(C)C1C/C=C1/C(=O)OCC1O (stereo partly drawn)	18.6	11.8	20.9	472	504	445
O=C(NC1CCNCC1)c1n[nH]cc1NC(=O)c1c(Cl)cccc1Cl	9.34	3.32	16.6	464	512	542
Nc1ccc(/C=C/C(=O)NCc2cc3cc(-c4ccc(C(=O)N5CCC(F)(F)CC5)cc4)cc(-c4ccc(F)cc4)c3o2)cn1	2.09	2.35	3.32	340	447	458
C=CC(=O)Nc1cc2c(Nc3ccc(F)c(Cl)c3)ncnc2cc1OCCCN1CCOCC1	11.8	8.33	14.8	443	498	427

Structure (SMILES)	AC50 viability [1] [µM]	AC50 viability [2] [µM]	AC50 viability [3] [µM]	area under concentration-response curve [4]	area under concentration-response curve [5]	area under concentration-response curve [6]
O=C(Nc1ccccc1-c1cn2c(CN3CCNCC3)csc2n1)c1cnc2ccccc2n1	6.61	7.42	2.95	367	366	358
C[C@@]12OC(=O)[C@@]1(NC(=O)[C@@H]2CCCl)[C@@H](O)[C@H]\3CCC\C=C3	0.833	1.05	0.833	305	437	435
COc1ccc(Nc2cc(-c3cnc(N)nc3)nc(N3CCOCC3)n2)cn1	1.05	1.05	1.66	413	493	392
COc1cccc2c1C(=O)c1c(O)c3c(c(O)c1C2=O)C[C@@](O)(/C(CO)=N/NC(=O)CCCCCN1C(=O)C=CC1=O)C[C@@H]3O[C@H]1C[C@H](N)[C@H](O)[C@H](C)O1	20.9	18.6	18.6	356	539	492
O=[N+]([O-])c1ccc(Nc2ccccc2-c2ccccc2)c2nonc12	9.34	8.33	8.33	426	467	434
C=CCNc1c(O)cc2c(O)c1C[C@@H](C)C[C@H](OC)[C@H](O)[C@@H](C)/C=C(/C)[C@H](OC(N)=O)[C@@H](OC)/C=C\C=C(\C)C(=O)N2	2.95	0.525	14.8	335	335	419
Fc1cc(-c2cccc3ncc(-c4cnn(C5CCNCC5)c4)nc23)cc(F)c1CN1CCOCC1	11.8	13.2	8.33	390	437	428
CS[C@H]1SC[C@@H]2C(=O)N(C)[C@H](C(C)C)C(=O)OC[C@H](NC(=O)c3cnc4ccccc4n3)C(=O)N[C@H](C)C(=O)N(C)[C@H]1C(=O)N(C)[C@H](C(C)C)C(=O)OC[C@H](NC(=O)c1cnc3ccccc3n1)C(=O)N[C@H](C)C(=O)N2C	0.00934	0.0209	0.0833	152	235	320
C=CC(=O)Nc1cccc(Sc2nc(Nc3ccc(N4CCN(C)CC4)cc3)ncc2Cl)c1	4.68	4.17	4.68	342	388	375
CO[C@@H](C)Cn1c(=O)n(C)c2cnc3ccc(-c4cncc(C(C)(C)O)c4)cc3c21	0.742	0.661	1.05	398	419	445
CC(C)c1cnn2c(NCc3ccccc3)cc(N[C@@H](CO)[C@H](O)CO)nc12	0.372	0.295	1.48	372	326	395
COC[C@H](NC(=O)c1cnc(C)s1)C(=O)N[C@@H](COC)C(=O)N[C@@H](Cc1ccccc1)C(=O)[C@@]1(C)CO1	0.166	0.0833	0.0661	220	255	276
COC1=CC=C(C(=C1)OC(C)C)C/2=N/[C@@H]([C@@H](N2C(=O)N3CCNC(=O)C3)C4=CC=C(Cl)C=C4)C5=CC=C(Cl)C=C5	11.8	14.8	10.5	290	291	288
C[C@@H]1CN(CC(=O)N2CC(C)(C)c3ncc(Cc4ccc(F)cc4)cc32)[C@@H](CN2CCOC[C@H]2C)CN1	18.6	1.32	20.9	449	451	462
CCN1CCN(Cc2ccc(NC(=O)Nc3ccc(Oc4cc(NC)ncn4)cc3)cc2C(F)(F)F)CC1	9.34	10.5	11.8	436	526	494
O=C(/C=C\n1cnc(-c2cc(C(F)(F)F)cc(C(F)(F)F)c2)n1)NNc1ccccn1	2.35	1.32	10.5	273	245	271
CCCCOc1c(C(=O)c2c(F)cc(C)cc2F)cnc2[nH]ncc12	1.48	2.09	2.35	419	407	432
Cc1cc(O)c(-c2ccc([C@@H](C)CN(C)C)cc2)c2c1[nH]c(=O)c1sccc12	0.235	0.166	0.295	311	346	305
COC1=CC2=C(C=C1CC3=C(F)C(=CC=C3)Cl)C(=O)\C(=C/N2[C@H](CO)C(C)C)C(O)=O	16.6	14.8	20.9	405	528	509

Reference: the supplement of paper PMC10949913
